In ChEMBL document CHEMBL4177677, “Relevance of Half-Life in Drug Design” (J Med Chem, 2018):
Values belong to the compound of their own block, whether it stands above or below them.

How the values were obtained:
[1] = Terminal half life in human at 0.1 mg/kg, iv; format: ADME, organism-based; settings: in vivo, read-out: beta t1/2 (converted)
[2] = Drug excretion in human kidney; settings: urine
Homo sapiens [3] = organism: Homo sapiens; experiment: Unbound concentration in human at 5 to 10 mg, qd; format: ADME, organism-based; settings: in vivo
[4] = Inhibition of human calcium channel
[5] = Half life in human; format: ADME, organism-based; settings: in vivo
[6] = Terminal half life in human; format: ADME, organism-based; settings: in vivo, read-out: beta t1/2
[7] = Half life in human at 10 mg, tid; settings: in vivo
Homo sapiens [8] = organism: Homo sapiens; experiment: Unbound concentration in human at 10 mg, tid; settings: in vivo

Compound: NS(=O)(=O)N1CCN(C2CN(CC[C@]3(c4ccc(Cl)c(Cl)c4)CCC(=O)N(CC4CC4)C3)C2)CC1
- half-life [1]: 28 h

Compound: NCCCC(O)(P(=O)(O)O)P(=O)(O)O [ALENDRONIC ACID]
- dose excreted [2]: 20 to 80%

Compound: CCOC(=O)C1=C(COCCN)NC(C)=C(C(=O)OC)C1c1ccccc1Cl (stereo not given) [AMLODIPINE]
- Drug uptake(free) (Homo sapiens [3]): 2 nM
- IC50 [4]: 2 nM

Compound: COC(=O)C1=C(C)NC(C)=C(C(=O)OC)C1c1ccccc1[N+](=O)[O-] [NIFEDIPINE]
- half-life [7]: 2 h
- Drug uptake(free) (Homo sapiens [8]): 6 nM
- IC50 [4]: 4 nM

The remaining lines, values ahead:

- half-life [5]: 60 h
Compound: COc1cc(F)c(C(C)C)cc1-c1ccc(C(F)(F)F)cc1CN1C(=O)O[C@H](c2cc(C(F)(F)F)cc(C(F)(F)F)c2)[C@@H]1C [ANACETRAPIB]

- half-life [6]: 19 to 26 h
Compound: CC(C(=O)O)c1ccc2oc(-c3ccc(Cl)cc3)nc2c1 (stereo not given) [BENOXAPROFEN]

- half-life [5]: 3 h
Compound: C[C@@H]1CCN(C(=O)CC#N)C[C@@H]1N(C)c1ncnc2[nH]ccc12 [TOFACITINIB]
